Broadly, the IC50 is the point on the concentration scale where inhibition reaches its midpoint.

* marks the point of attachment. Biotin = O=C1N[C@H]2[C@H](CS[C@H]2CCCCC(=O)*)N1; Ahx = NCCCCCC(=O)O

For one assay, the system named is NHEKs. Kind of assay: IL-17A/TNFα spike-in in primary keratinocytes (NHEKs), qRT-PCR. In kind it is cell-based, human. The note with it: 0.75 μg/ml; similar to TNFα stimulation. On the procedure:
The HaCaT keratinocyte cell line was purchased from AddexBio and was maintained in RPMI 1640 medium supplemented with Glutamax, Penicillin/Streptomycin (all from Gibco) and 10% FCS (PAA). Normal primary human epidermal keratinocytes (NHEKs) were purchased from Lonza and PromoCell, respectively. Cells were cultured in Keratinocyte basal growth medium (KBM; Lonza) containing KGM2 growth supplements including insulin, human epidermal growth factor, bovine pituitary extract, hydrocortisone, epinephrine, transferrin, and gentamicin/amphotericin B (Lonza). HaCaT cells were incubated in a 96-well-microtiter plate (2 × 10^4 cells/well) with Th17 cytokine-containing supernatants obtained from total CD4^+ T-cells that were polarized for 72 h in the presence of anti-CD3/CD28 antibodies and a Th17 polarization cocktail as described above. […] Cytokine concentrations in supernatants were determined from representative experiments and they contained approximately 150 pg/ml or 600 pg/ml of IL-17 in 10 μM or in 0.13 nM treated samples, respectively. […]
Total RNA from human Th17 cells (6 × 10^5 cells), RORγt-RORE HUT78 cells (4 × 10^5 cells) and HaCaT cells (6 × 10^4 cells) was extracted using RNeasy kit including a DNAse I digestion step according to the manufacturer‘s protocol (Qiagen). […] Quantitative RT-PCR analysis was performed using a TaqManViiA7 (Applied Biosystems). […]
In general terms: Quantitative PCR measures a nucleic acid by following its amplification.

Another assay relates to HaCaT keratinocytes. Briefly: IL-17-driven HaCaT keratinocyte responses (Th17 supernatants or spiked cytokines), qRT-PCR. In kind it is cell-based, human. As for the experimental part:
The HaCaT keratinocyte cell line was purchased from AddexBio and was maintained in RPMI 1640 medium supplemented with Glutamax, Penicillin/Streptomycin (all from Gibco) and 10% FCS (PAA). Normal primary human epidermal keratinocytes (NHEKs) were purchased from Lonza and PromoCell, respectively. Cells were cultured in Keratinocyte basal growth medium (KBM; Lonza) containing KGM2 growth supplements including insulin, human epidermal growth factor, bovine pituitary extract, hydrocortisone, epinephrine, transferrin, and gentamicin/amphotericin B (Lonza). HaCaT cells were incubated in a 96-well-microtiter plate (2 × 10^4 cells/well) with Th17 cytokine-containing supernatants obtained from total CD4^+ T-cells that were polarized for 72 h in the presence of anti-CD3/CD28 antibodies and a Th17 polarization cocktail as described above. […] Cytokine concentrations in supernatants were determined from representative experiments and they contained approximately 150 pg/ml or 600 pg/ml of IL-17 in 10 μM or in 0.13 nM treated samples, respectively. The TNF-α concentration was similar in supernatants exposed to low or high Cpd A concentrations and was 4 ng/ml. To study the impact of the IL-17 cytokine, IL-17 in the supernatants and in the spike-in cocktails was neutralized by a 0.5 h pre-incubation with an IL-17-specific antibody [0.75 μg/ml; Secukinumab (Cosentyx®, Novartis)]. All cultures were incubated in triplicates and after a 24 h incubation period, HaCaT cells (6 × 10^4 cells/sample) and NHEKs (1 × 10^5 cells/sample) were harvested and further processed for qRT-PCR analysis.
Total RNA from human Th17 cells (6 × 10^5 cells), RORγt-RORE HUT78 cells (4 × 10^5 cells) and HaCaT cells (6 × 10^4 cells) was extracted using RNeasy kit including a DNAse I digestion step according to the manufacturer‘s protocol (Qiagen). Frozen skin biopsies (8 mm punches) were resuspended in RLT buffer (Qiagen) containing 1% β-mercaptoethanol and homogenized using a Precellys-Cryolys device (Bertin Instruments) according to the manufacturer's instructions. cDNAs were prepared with the High Capacity cDNA Reverse Transcription Kit (Applied Biosystems). Quantitative RT-PCR analysis was performed using a TaqManViiA7 (Applied Biosystems). All runs were accompanied by the internal control gene human β-glucoronidase (Gus) (431088E). The samples were run in triplicate or in hexaplicate and normalized to Gus using the ΔΔCt method to provide arbitrary units representing relative expression levels. The following Taqman probes were used for RT-PCR (Thermo Scientific): RORC (Hs01076112_m1), IL17A (Hs00936345_m1), IL22 (Hs01574154_m1), IL26 (Hs00218189_m1), IL23R (Hs00332759_m1), CCR6 (Hs00218189_m1), NFKBIZ (Hs00355476_m), DEFB4A (Hs00823638_m1), IL36G (Hs00219742_m1), and CCL20 (Hs00355476_m1).

Assay [1] concerns STAT3 phosphorylation in Ba/F3 cells stably expressing the human IL-21 receptor. Briefly: IL-21-induced phospho-STAT3 by flow cytometry. The class given is cell-based. The note with it: 1 μM, 1 h pre-incubation. On the procedure:
To assess whether Cpd A affected STAT3 activity we induced STAT3 phosphorylation in Ba/F3 cells stably expressing the human IL-21 receptor (kindly provided by Dr. Max Warncke, Novartis). Cells were pre-incubated for 1 h with 10 μM of Cpd A or with 1 μM of the pan-JAK inhibitor CP690550. To induce STAT3 activity, the cells were stimulated for 1.5 h with recombinant human IL-21 (3 nM), followed by two washing steps using buffer containing PBS/0.5% BSA. The cells were fixed with 2% paraformaldehyde for 15 min at room temperature, washed and resuspended in ice-cold 90% methanol solution and stored overnight at −20°C. The samples were washed and stained for 1 h with an Alexa 647-labeled anti-phospho (pY705)-STAT3 antibody (BD biosciences). After two washes the cells were analyzed using a LSR Fortessa (BD Bioscience) and analyzed using FlowJo software (Tree Star).
On the technique in general: A flow cytometer gives signals particle by particle.

The next assay deals with total human CD4+ T-cells. Kind of assay: Th17 polarization of total CD4+ T-cells, cytokine ELISA. The class given is cell-based. The note with it: total CD4+ T-cells, Th17 polarization 72 h, ELISA; read-out: IC50, IL-17A secretion. On the procedure: Total, naive and memory CD4^+ T cells were isolated from Peripheral blood mononuclear cells (PBMCs) from healthy volunteers by density gradient centrifugation using Ficoll Paque (GE). Total, naive or memory CD4^+ T-cells were prepared by immunomagnetic separation using the respective CD4^+ T-cell enrichment kits resulting in untouched highly purified subsets (EasySep™, Stem Cell). Purity was assessed by flow cytometry and was between 95 and 98% for the total CD4^+ T-cells. The purity of naive (CD45RA^+CD45RO^−) and memory (CD45RA^−CD45RO^+) CD4^+T-cells ranged between 95 and 98%, respectively. For T-cell stimulation experiments, cells were treated as previously published ([44]). Briefly, T-cells were stimulated with plate-bound monoclonal antibodies against CD3 (1 μg/ml, clone OKT-3, BioXcell) and CD28 (1 μg/ml, clone CD28.2, BioLegend). For Th17 polarization assays, IL-6 (20 ng/ml), TGF-β1 (5 ng/ml), IL-1β (10 ng/ml), and IL-23 (10 ng/ml) were added. For Th1 polarization assays, IL-12 (10 ng/ml) and anti-IL-4 antibody (5 μg/ml), for Th2 polarizations, IL-4 (10 ng/ml) and anti-IFN-γ antibody (5 μg/ml) were added. For Th0 polarization assays, cells were only stimulated with CD3 and CD28 antibodies. Supernatants were collected after 3 or 7 days of incubation for total or naive/memory CD4^+ T-cell polarizations, respectively. Cytokine concentrations were quantified by ELISA according to the manufacturer's instructions (eBioscience or BioLegend).
For orientation: An ELISA detects its analyte on a solid surface through an enzyme-linked reagent.

The subject of assay [2] is HUT78 T-cells stably expressing full-length eGFP-RORγt. Kind of assay: IL-17A / IL-2 production by RORγt transduced HUT78 T-cell line. The class given is cell-based, human. The note with it: PMA plus anti-CD3, 48 h, ELISA.
Assay [3] addresses T1, human RORγt ligand binding domain (264-518), His6-tagged (human, UniProt P51449-1 264-518).
T1 construct: also called RORγt-LBD; His6-tagged RORγt-LBD; source: produced at Novartis
T1 sequence (looked up): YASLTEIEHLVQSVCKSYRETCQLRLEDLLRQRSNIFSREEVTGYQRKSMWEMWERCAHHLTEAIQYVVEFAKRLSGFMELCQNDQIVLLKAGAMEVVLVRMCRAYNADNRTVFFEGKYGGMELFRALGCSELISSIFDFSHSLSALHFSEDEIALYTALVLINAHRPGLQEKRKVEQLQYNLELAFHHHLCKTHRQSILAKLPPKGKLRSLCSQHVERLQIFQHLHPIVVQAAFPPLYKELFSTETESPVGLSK
Kind of assay: FRET or BRET; TR-FRET in solution: 6 nM His6-tagged RORγt-LBD, 90 nM biotinylated RIP140 co-activator peptide, 0.45 nM Cy5-labeled streptavidin, 1.5 nM Europium-labeled anti-His6 antibody; 1 h incubation; emissions at 615 and 665 nm; displacement by the small molecules Cpd A or SR2211. The note with it: both partners purified.

As for “Secukinumab: neutralizing IL-17-selective antibody (Cosentyx, Novartis)”, the “NFKBIZ, DEFB4A, CCL20, IL36G gene expression in NHEKs (spike-in)” value with NHEKs is listed as “reduced gene expression”. The “IL36G expression in HaCaT after IL-17 neutralization in Th17 supernatants” value with HaCaT keratinocytes (0.75 μg/ml) is given as “moderate inhibition”. Also, the “IL-17A/TNFα-mediated gene expression in HaCaT (spike-in)” value with HaCaT keratinocytes (0.75 μg/ml pre-incubation of cytokines, similar to TNFα-induced levels) is “significantly impaired”. Also, the “IL-17 activated transcripts in HaCaT after IL-17 neutralization in Th17 supernatants” value in the assay on HaCaT keratinocytes (0.75 μg/ml, to levels seen with Th17 cytokines only) is recorded as “further downregulation”.
Turning to `C[C@@H]1CCN(C(=O)CC#N)C[C@@H]1N(C)c1ncnc2[nH]ccc12` [CP690550, reference compound], the “IL-21-induced STAT3 activity (pY705-STAT3)” value in assay [1] was “blocked”.
Take `OC(c1ccc(-c2ccc(CN3CCN(Cc4ccncc4)CC3)cc2)c(F)c1)(C(F)(F)F)C(F)(F)F` [SR2211, reference compound]: the IC50 in the assay with total human CD4+ T-cells turned out to be 1480 ± 739 nM; in assay [2], 257 ± 181 nM.

B1: biotinylated RIP140 derived co-activator peptide (peptide)
peptide: {Biotin-Ahx}-NSHQKVTLLQLLLGHKNEEN-NH2
SMILES: CC(C)C[C@H](NC(=O)[C@H](CC(C)C)NC(=O)[C@H](CC(C)C)NC(=O)[C@H](CCC(N)=O)NC(=O)[C@H](CC(C)C)NC(=O)[C@H](CC(C)C)NC(=O)[C@@H](NC(=O)[C@@H](NC(=O)[C@H](CCCCN)NC(=O)[C@H](CCC(N)=O)NC(=O)[C@H](Cc1c[nH]cn1)NC(=O)[C@H](CO)NC(=O)[C@H](CC(N)=O)NC(=O)CCCCCNC(=O)CCCC[C@@H]1SC[C@@H]2NC(=O)N[C@@H]21)C(C)C)[C@@H](C)O)C(=O)NCC(=O)N[C@@H](Cc1c[nH]cn1)C(=O)N[C@@H](CCCCN)C(=O)N[C@@H](CC(N)=O)C(=O)N[C@@H](CCC(=O)O)C(=O)N[C@@H](CCC(=O)O)C(=O)N[C@@H](CC(N)=O)C(N)=O
notes: also called RIP140 peptide; source: bought: Thermo Scientific
B1: the binding result in assay [3] is listed as “binds”.

(Values after article PMC6443933, “Antagonizing Retinoic Acid-Related-Orphan Receptor Gamma Activity Blocks the T Helper 17/Interleukin-17 Pathway Leading to Attenuated Pro-inflammatory Human Keratinocyte and Skin Responses” (Frontiers in Immunology, 2019).)
